Test results reported in ChEMBL document CHEMBL1914389, “Steroidal C-21 mercapto derivatives as dissociated steroids: discovery of an inhaled dissociated steroid” (Bioorg Med Chem Lett, 2011).

What was measured:
Glucocorticoid receptor [1] = target: T1, Glucocorticoid receptor (Homo sapiens, UniProt P04150); experiment: Transrepression activity at glucocorticoid receptor in human H292 cells assessed as inhibition of TNF-stimulated IL-6 cytokine synthesis; format: cell-based
T1 sequence (P04150 whole entry): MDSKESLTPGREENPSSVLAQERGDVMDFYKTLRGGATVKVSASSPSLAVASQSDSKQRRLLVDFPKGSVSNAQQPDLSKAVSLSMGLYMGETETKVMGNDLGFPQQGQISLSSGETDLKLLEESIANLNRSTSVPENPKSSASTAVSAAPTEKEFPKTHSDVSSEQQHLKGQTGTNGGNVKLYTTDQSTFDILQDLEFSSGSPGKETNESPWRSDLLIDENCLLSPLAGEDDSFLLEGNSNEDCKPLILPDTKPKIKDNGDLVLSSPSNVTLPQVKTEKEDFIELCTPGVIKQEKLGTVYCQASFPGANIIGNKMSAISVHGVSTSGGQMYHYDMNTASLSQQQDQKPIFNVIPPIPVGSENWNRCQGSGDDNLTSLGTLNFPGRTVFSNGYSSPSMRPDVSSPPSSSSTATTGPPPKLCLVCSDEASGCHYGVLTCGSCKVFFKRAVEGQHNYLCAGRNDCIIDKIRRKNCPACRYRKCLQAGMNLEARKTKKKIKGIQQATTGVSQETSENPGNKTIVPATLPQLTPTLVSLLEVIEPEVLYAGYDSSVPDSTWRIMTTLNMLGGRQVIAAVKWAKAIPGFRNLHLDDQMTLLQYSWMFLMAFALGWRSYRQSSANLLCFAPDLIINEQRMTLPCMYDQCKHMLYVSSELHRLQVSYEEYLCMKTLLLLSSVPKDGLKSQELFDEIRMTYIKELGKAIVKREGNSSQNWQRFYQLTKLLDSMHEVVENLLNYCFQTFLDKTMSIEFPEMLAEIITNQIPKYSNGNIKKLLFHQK

[2] = target: T2, Glucocorticoid receptor (Homo sapiens) (UniProt P04150); experiment: Transrepression activity at glucocorticoid receptor in human H292 cells assessed as inhibition of TNF-stimulated IL-6 cytokine synthesis at 1 uM relative to control; format: cell-based
T2 sequence (whole entry): T1 sequence (P04150 whole entry)

[3] = target: T3, Glucocorticoid receptor (Rattus norvegicus) (UniProt P06536); experiment: Transactivation activity at glucocorticoid receptor in rat H4II-E cells assessed as induction of tyrosine amino transferase at 1 uM relative to control; format: cell-based
T3 sequence (whole entry): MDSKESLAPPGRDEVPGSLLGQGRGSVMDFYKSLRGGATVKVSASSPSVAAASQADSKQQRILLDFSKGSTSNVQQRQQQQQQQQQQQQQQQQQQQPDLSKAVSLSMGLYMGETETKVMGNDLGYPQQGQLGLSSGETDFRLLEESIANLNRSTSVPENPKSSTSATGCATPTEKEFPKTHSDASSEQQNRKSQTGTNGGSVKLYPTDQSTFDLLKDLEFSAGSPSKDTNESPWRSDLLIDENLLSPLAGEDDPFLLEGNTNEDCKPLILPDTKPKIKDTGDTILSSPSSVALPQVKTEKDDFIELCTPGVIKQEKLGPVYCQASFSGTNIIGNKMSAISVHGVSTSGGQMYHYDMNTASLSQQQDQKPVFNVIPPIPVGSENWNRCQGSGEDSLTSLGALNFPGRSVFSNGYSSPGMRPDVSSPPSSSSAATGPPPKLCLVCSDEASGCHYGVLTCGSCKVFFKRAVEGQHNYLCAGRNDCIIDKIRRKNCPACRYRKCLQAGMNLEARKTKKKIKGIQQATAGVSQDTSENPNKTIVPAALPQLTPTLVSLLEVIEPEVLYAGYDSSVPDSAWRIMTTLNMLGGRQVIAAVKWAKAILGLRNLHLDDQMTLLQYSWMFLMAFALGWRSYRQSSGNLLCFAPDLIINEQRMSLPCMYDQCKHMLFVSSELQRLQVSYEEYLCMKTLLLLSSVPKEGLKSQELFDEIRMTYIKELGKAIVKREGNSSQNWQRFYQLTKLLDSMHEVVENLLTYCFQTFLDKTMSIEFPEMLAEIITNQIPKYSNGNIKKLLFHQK

Glucocorticoid receptor [4] = target: T1, Glucocorticoid receptor; experiment: Transactivation activity at glucocorticoid receptor in human HepG2 cells expressing luciferase-taggged GRE gene by luciferase reporter gene assay; format: cell-based
[5] = target: T2, Glucocorticoid receptor (Homo sapiens); experiment: Transactivation activity at glucocorticoid receptor in human HepG2 cells expressing luciferase-taggged GRE gene at 1 uM by luciferase reporter gene assay relative to control; format: cell-based
[6] = target: T2, Glucocorticoid receptor (Homo sapiens); experiment: Transactivation activity at glucocorticoid receptor in human HepG2 cells assessed as induction of tyrosine amino transferase at 1 uM relative to control; format: cell-based
[7] = Therapeutic index, ratio of ED20 for thymolysis to ED70 for forced vital capacity in ovalbumin-challenged Brown-Norway rat; format: organism-based; conditions: in vivo, read-out: TI
Glucocorticoid receptor [8] = target: T1, Glucocorticoid receptor; experiment: Inhibition of human glucocorticoid receptor
Glucocorticoid receptor [9] = target: T4, Glucocorticoid receptor (Rattus norvegicus, UniProt P06536); experiment: Transactivation activity at glucocorticoid receptor in rat H4II-E cells assessed as induction of tyrosine amino transferase; format: cell-based
T4 sequence (P06536 whole entry): T3 sequence (whole entry)

Rattus norvegicus [10] = experiment: Induction of thymolysis in ovalbumin-challenged Brown-Norway rat at upto 730 ug/kg administered via nose inhalation; format: organism-based; conditions: in vivo, 0.73 mg/kg
Rattus norvegicus [11] = organism: Rattus norvegicus; experiment: Ratio of fluticasone propionate TI to compound TI in ovalbumin-challenged Brown-Norway rat
[12] = AUC in rat at 10 mg/kg, po; format: ADME, organism-based; design: dose 10 mg/kg, route oral; conditions: plasma
Glucocorticoid receptor [13] = target: T1, Glucocorticoid receptor; experiment: Transactivation activity at glucocorticoid receptor in human HepG2 cells assessed as induction of tyrosine amino transferase; format: cell-based
Rattus norvegicus [14] = experiment: Antiinflammatory activity in intratracheal insufflated allergen challenged Brown-Norway rat assessed as inhibition of inflammatory cell influx administered as single dose; format: functional; conditions: inhaled or nasal
Rattus norvegicus [15] = experiment: Toxicity in ip dosed Brown-Norway rat assessed as decrease in adrenal weight administered for 3 days; format: organism-based; conditions: in vivo, 72 h
Rattus norvegicus [16] = experiment: Toxicity in ip dosed Brown-Norway rat assessed as decrease in body weight administered for 3 days; format: organism-based; conditions: in vivo, 72 h
Rattus norvegicus [17] = experiment: Toxicity in ip dosed Brown-Norway rat assessed as decrease in thymus weight administered for 3 days; format: organism-based; conditions: in vivo, 72 h
Rattus norvegicus [18] = experiment: Antiinflammatory activity in allergen challenged Brown-Norway rat assessed as inhibition of total BAL cell administered via nose as dry powder; format: functional
Lung = experiment: Drug uptake in lung of Brown-Norway rat; format: ADME, tissue-based; conditions: in vivo

Row | Compound | IC50 (Glucocorticoid receptor [1]) | Emax [2] | Emax [3] | EC50 (Glucocorticoid receptor [4]) | Emax [5] | Emax [6] | IC50 (Glucocorticoid receptor [8]) | other results
1 | C[C@]12C=CC(=O)C=C1CC[C@@H]1[C@@H]2[C@@H](O)C[C@@]2(C)[C@H]1CC[C@]2(OC(=O)c1ccco1)C(=O)CSc1nccc2ccccc12 | 0.0021 µM | 96% | 32% | 0.0173 µM | 73% | 24% |  | 
2 | CCC(=O)OCC(=O)[C@@]1(OC(=O)CC)[C@@H](C)C[C@H]2[C@@H]3CCC4=CC(=O)C=C[C@]4(C)[C@@]3(Cl)[C@@H](O)C[C@@]21C [BECLOMETHASONE DIPROPIONATE] |  |  |  |  |  |  |  | selectivity ratio [7]: 1
3 | Cc1ccnc(SCC(=O)[C@@]2(OC(=O)c3ccco3)CC[C@H]3[C@@H]4CCC5=CC(=O)C=C[C@]5(C)[C@H]4[C@@H](O)C[C@@]32C)n1 | 0.0021 µM | 98% | 24% | 0.0133 µM | 97% | 43% |  | 
4 | C[C@]12CCC(=O)C=C1CC[C@H]1[C@@H]3CC[C@](O)(C(=O)CSc4nc5ccccc5s4)[C@@]3(C)C[C@H](O)[C@@]12F | 0.0188 µM | 95% | 21% | 0.535 µM | 63% |  | 0.0046 µM | 
5 | CCCC1O[C@@H]2C[C@H]3[C@@H]4CCC5=CC(=O)C=C[C@]5(C)[C@H]4[C@@H](O)C[C@]3(C)[C@]2(C(=O)CO)O1 (some centres not stated) [BUDESONIDE] |  |  |  |  |  |  |  | selectivity ratio [7]: 1
6 | C[C@]12CCC(=O)C=C1CC[C@@H]1[C@@H]2[C@@H](O)C[C@@]2(C)[C@H]1CC[C@]2(OC(=O)c1ccco1)C(=O)CSc1cnc2ccccc2n1 | 0.0014 µM | 98% | 9% |  |  | 41% |  | 
7 | C[C@@H]1C[C@H]2[C@@H]3CCC4=CC(=O)C=C[C@]4(C)[C@@]3(F)[C@@H](O)C[C@]2(C)[C@@]1(O)C(=O)CSc1nc2ccccc2s1 | 0.0044 µM | 98% | 33% | 0.0455 µM | 68% |  | 0.018 µM | 
8 | C[C@]12CCC(=O)C=C1CC[C@@H]1[C@@H]2[C@@H](O)C[C@@]2(C)[C@H]1CC[C@]2(OC(=O)c1ccco1)C(=O)CSc1ccc2ccccc2n1 | 0.00285 µM | 96% | 11% |  |  | 22% |  | 
9 | C[C@@H]1C[C@H]2[C@@H]3C[C@H](F)C4=CC(=O)C=C[C@]4(C)[C@@]3(F)[C@@H](O)C[C@]2(C)[C@@]1(O)C(=O)CSc1nc2ccccc2s1 | 0.0019 µM | 100% | 79% | 0.017 µM | 66% |  | 0.013 µM | EC50 (Glucocorticoid receptor [9]): 0.027 µM
10 | C[C@]12CCC(=O)C=C1CC[C@@H]1[C@@H]2[C@@H](O)C[C@@]2(C)[C@H]1CC[C@]2(OC(=O)c1ccco1)C(=O)CSc1nc2ccccc2s1 | 0.002 µM | 100% | 2% |  |  | 5% |  | selectivity ratio [7]: > 15; Activity (Rattus norvegicus [10]): >= 20%; Ratio (Rattus norvegicus [11]): 10; AUC [12]: 7 ng·h/mL
11 | C[C@H]1C[C@@H]2[C@H]([C@@H](O)C[C@@]3(C)[C@H]2CC[C@]3(O)C(=O)CSc2nc3ccccc3s2)[C@@]2(C)C=CC(=O)C=C12 | 0.0391 µM | 95% | 34% | 0.295 µM | 55% |  | 0.018 µM | 
12 | C[C@]12CCC(=O)C=C1CC[C@@H]1[C@@H]2[C@@H](O)C[C@@]2(C)[C@H]1CC[C@]2(OC(=O)c1ccco1)C(=O)CSc1ncccn1 | 0.0097 µM | 94% | 7% |  |  | 35% |  | 
13 | C[C@@H]1C[C@H]2[C@@H]3CCC4=CC(=O)C=C[C@]4(C)[C@@]3(Cl)[C@@H](O)C[C@]2(C)[C@@]1(O)C(=O)CSc1nc2ccccc2s1 | 0.00495 µM | 88% | 29% | 0.05 µM | 60% |  | 0.017 µM | 
14 | C[C@]12C=CC(=O)C=C1CC[C@@H]1[C@@H]2[C@@H](O)C[C@@]2(C)[C@H]1CC[C@]2(OC(=O)c1ccco1)C(=O)CSc1nc2ccccc2s1 | 0.00075 µM | 99% | 62% | 0.0141 µM | 93% | 43% |  | EC50 (Glucocorticoid receptor [9]): 0.0187 µM; EC50 (Glucocorticoid receptor [13]): 0.0508 µM
15 | C[C@]12C=CC(=O)C=C1CC[C@@H]1[C@@H]2[C@@H](O)C[C@@]2(C)[C@H]1CC[C@]2(O)C(=O)CSc1nc2ccccc2s1 | 0.035 µM | 78% | 19% |  | 29% |  | 0.0038 µM | 
16 | C[C@]12CCC(=O)C=C1CC[C@@H]1[C@@H]2[C@@H](O)C[C@@]2(C)[C@H]1CC[C@]2(OC(=O)c1ccco1)C(=O)CSc1nccc2ccccc12 | 0.0159 µM | 86% | 4% |  |  | 33% |  | 
17 | C[C@]12CCC(=O)C=C1CC[C@@H]1[C@@H]2[C@@H](O)C[C@@]2(C)[C@H]1CC[C@]2(O)C(=O)CSc1nc2ccccc2s1 | 0.036 µM | 97% | 0% |  | 30% | 5% | 0.0048 µM | ED50 (Rattus norvegicus [14]): 0.42 mg/kg; ED50 (Rattus norvegicus [15]): > 100 mg/kg; ED50 (Rattus norvegicus [16]): > 100 mg/kg; ED50 (Rattus norvegicus [17]): > 100 mg/kg; inhibition (INH) (Rattus norvegicus [18]): 27%; Drug uptake (Lung): 85 µg/kg
18 | Cn1c(SCC(=O)[C@@]2(OC(=O)c3ccco3)CC[C@H]3[C@@H]4CCC5=CC(=O)CC[C@]5(C)[C@H]4[C@@H](O)C[C@@]32C)nc2ccccc21 | 0.0037 µM | 98% | 17% |  |  | 39% |  | 
19 | Cc1nc(SCC(=O)[C@@]2(OC(=O)c3ccco3)CC[C@H]3[C@@H]4CCC5=CC(=O)CC[C@]5(C)[C@H]4[C@@H](O)C[C@@]32C)sc1C | 0.0009 µM | 100% | 12% |  |  | 57% |  | EC50 (Glucocorticoid receptor [13]): 0.0224 µM
20 | C[C@]12CCC(=O)C=C1CC[C@@H]1[C@@H]2[C@@H](O)C[C@@]2(C)[C@H]1CC[C@]2(OC(=O)c1ccco1)C(=O)CSc1nc2ncccc2s1 | 0.0143 µM | 94% | 2% |  |  | 15% |  | 
21 | C[C@]12CCC(=O)C=C1CC[C@@H]1[C@@H]2[C@@H](O)C[C@@]2(C)[C@H]1CC[C@]2(OC(=O)c1ccco1)C(=O)CSc1nc2ccccc2o1 | 0.0022 µM | 97% | 9% |  |  | 53% |  | EC50 (Glucocorticoid receptor [13]): 0.0556 µM
